Source: paper PMC8747639, “Novel Angiotensin-Converting Enzyme Inhibitory Peptides Identified from Walnut Glutelin-1 Hydrolysates: Molecular Interaction, Stability, and Antihypertensive Effects” (Nutrients, 2021)
No end group written: not given here.

T1: angiotensin-converting enzyme (ACE) from rabbit lung (rabbit) (UniProt P12822)
T1 sequence: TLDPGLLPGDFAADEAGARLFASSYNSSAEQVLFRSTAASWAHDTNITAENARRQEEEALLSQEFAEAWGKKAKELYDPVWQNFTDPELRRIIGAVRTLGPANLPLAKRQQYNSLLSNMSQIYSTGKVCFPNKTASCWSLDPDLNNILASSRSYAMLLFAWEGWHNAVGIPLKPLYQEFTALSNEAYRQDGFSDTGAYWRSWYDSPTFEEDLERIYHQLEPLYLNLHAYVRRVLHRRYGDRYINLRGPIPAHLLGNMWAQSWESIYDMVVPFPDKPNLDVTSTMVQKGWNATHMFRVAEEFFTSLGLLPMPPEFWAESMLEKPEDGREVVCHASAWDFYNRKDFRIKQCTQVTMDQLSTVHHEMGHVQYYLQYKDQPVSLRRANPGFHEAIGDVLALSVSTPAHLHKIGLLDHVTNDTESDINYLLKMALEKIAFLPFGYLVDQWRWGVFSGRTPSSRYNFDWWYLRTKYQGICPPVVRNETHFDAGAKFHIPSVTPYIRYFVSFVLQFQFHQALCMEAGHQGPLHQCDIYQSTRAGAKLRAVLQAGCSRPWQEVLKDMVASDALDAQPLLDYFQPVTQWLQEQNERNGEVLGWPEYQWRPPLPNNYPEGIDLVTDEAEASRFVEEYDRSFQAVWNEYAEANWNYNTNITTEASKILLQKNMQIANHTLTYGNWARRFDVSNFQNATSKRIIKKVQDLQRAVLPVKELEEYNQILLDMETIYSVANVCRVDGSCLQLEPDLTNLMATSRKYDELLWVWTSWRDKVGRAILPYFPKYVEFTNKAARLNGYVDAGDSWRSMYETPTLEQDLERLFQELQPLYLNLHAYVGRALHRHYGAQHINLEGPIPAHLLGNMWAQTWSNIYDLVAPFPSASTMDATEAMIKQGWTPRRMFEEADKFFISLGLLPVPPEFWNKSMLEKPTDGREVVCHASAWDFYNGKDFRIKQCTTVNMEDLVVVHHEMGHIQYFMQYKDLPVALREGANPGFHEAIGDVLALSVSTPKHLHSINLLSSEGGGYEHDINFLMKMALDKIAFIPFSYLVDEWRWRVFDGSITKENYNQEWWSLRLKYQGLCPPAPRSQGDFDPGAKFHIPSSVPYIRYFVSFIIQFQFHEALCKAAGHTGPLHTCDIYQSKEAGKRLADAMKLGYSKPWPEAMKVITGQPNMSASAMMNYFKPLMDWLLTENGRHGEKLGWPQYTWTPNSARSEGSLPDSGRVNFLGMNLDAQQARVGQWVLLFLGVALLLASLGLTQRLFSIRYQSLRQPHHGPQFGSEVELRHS

T2: ACE (from rabbit lung) (Oryctolagus cuniculus, UniProt P12822)
T2 construct: ACE (from rabbit lung) and hippuryl-histidyl-leucine (HHL) were purchased from Sigma Co; purchased Sigma Co., St. Louis, MO, USA; host or cells: rabbit lung (tissue-derived)
T2 sequence (P12822 34-1310): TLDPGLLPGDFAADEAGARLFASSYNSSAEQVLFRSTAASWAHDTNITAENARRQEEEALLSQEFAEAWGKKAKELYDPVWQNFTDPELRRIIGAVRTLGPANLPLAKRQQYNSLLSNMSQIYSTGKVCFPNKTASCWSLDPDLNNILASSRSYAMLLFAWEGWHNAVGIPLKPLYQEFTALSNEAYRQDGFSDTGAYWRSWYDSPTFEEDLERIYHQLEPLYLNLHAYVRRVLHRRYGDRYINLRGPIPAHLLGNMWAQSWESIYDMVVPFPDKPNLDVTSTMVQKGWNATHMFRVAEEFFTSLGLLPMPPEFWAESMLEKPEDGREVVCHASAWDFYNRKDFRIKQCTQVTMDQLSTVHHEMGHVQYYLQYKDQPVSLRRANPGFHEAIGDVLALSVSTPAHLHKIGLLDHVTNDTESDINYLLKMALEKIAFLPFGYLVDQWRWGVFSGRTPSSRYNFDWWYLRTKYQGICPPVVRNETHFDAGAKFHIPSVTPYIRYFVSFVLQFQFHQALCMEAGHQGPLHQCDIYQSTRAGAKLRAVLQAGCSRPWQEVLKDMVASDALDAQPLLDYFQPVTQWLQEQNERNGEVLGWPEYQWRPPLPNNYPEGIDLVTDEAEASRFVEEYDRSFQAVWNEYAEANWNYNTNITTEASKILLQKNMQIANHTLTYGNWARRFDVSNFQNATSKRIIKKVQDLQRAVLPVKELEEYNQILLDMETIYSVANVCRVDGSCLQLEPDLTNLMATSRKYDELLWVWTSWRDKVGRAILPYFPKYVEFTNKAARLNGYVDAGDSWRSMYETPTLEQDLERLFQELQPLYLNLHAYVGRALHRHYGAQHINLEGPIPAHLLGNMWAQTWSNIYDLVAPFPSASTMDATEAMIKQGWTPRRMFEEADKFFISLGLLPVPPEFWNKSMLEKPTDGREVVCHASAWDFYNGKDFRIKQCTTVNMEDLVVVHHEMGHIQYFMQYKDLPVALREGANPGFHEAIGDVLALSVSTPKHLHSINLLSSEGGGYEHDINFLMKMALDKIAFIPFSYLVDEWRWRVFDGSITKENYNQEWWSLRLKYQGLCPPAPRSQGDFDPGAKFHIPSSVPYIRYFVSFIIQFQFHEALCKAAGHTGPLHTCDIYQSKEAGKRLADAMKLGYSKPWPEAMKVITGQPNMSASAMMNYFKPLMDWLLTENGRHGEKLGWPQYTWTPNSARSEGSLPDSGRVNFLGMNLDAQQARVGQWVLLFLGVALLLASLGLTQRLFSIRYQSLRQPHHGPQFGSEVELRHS


What was measured:
[1] = molecular target: T1, angiotensin-converting enzyme (ACE) from rabbit lung (rabbit)
pepsin and trypsin = assay: GI digestion stability of the synthesized peptides (pepsin, trypsin), read out as ACE inhibitory activity; format: in vitro ADME; conditions: pepsin 1 mg/mL pH 2.0 37 °C 3 h, or trypsin 1.0 mg/mL pH 8.0 37 °C 4 h
Procedure: We conducted a GI digestion stability analysis of the synthesized peptides according to the method proposed by Khueychai et al. (2018) with slight modifications. Briefly, the peptide solution was incubated with 1 mg/mL of pepsin solution (0.1 M HCl, pH 2.0) at 37 °C for 3 h. Subsequently, the pH value of the mixed solution was adjusted to 8.0 with 1.0 M NaOH, and 1.0 mg/mL of trypsin added and incubated at 37 °C for 4 h. Finally, the ACE inhibitory activity of the reaction solution could be determined after boiling for 10 min, cooling to room temperature, and centrifuging for 15 min at 10,000× g.

[2] = Temperature, pH, metal ion, sugar and salt treatment stability of the synthesized peptides, read out as ACE inhibition rate; format: physicochemical; conditions: 1.0 mg/mL peptide, read-out ACE inhibition rate
Procedure: The effect of temperature, pH, metal ion, sugar, and salt treatments on the stabilities of two synthesized peptides, were determined by incubating 1.0 mg/mL of VERGRRITSV and FVIEPNITPA at 20 °C, 40 °C, 60 °C, 80 °C, and 100 °C for 2 h; 37 °C for 2 h at pH 2, 4, 6, 8, and 10; with 100 μg/mL of KCl, CaCl2, ZnSO4, MgSO4, and FeSO4 solution at 37 °C for 2 h; with glucose solutions of 2%, 4%, 8%, and 12% at 37 °C for 30 min; with NaCl solutions of 2%, 4%, 8%, and 12% at 37 °C for 30 min, respectively. The ACE inhibition rate was measured immediately after incubation.

ACE (from rabbit lung) = molecular target: T2, ACE (from rabbit lung); assay: ACE inhibitory activity (HHL substrate, absorbance); format: biochemical; conditions: calculated by linear regression of the curve; read-out: IC50 on angiotensin converting enzyme (ACE)
Text: The Grain, Oil and Protein Engineering Laboratory of Shaanxi Normal University (Xi’an, China) provided the defatted walnut meal. ACE (from rabbit lung) and hippuryl-histidyl-leucine (HHL) were purchased from Sigma Co., St. Louis, MO, USA. Pepsin (3 × 10^3 U/g) was obtained from Solarbio Science & Technology, Co., Ltd. (Beijing, China). High-performance liquid chromatography grade acetonitrile and trifluoroacetic acid were purchased from Fischer Scientific Co. (Waltham, MA, USA). The enzyme-linked immunosorbent assay kit for the detection of ACE, angiotensinogen (AGT), aldosterone (ALD), and Endothelin-1(ET-1) was purchased from Jiangsu Jingmei Biotechnology Co., Ltd. (YanCheng, China). The enzyme-linked immunosorbent assay kit for the detection of Ang II was obtained from Shanghai Kexing Biotechnology Co., Ltd., (Shanghai, China). and the nitric oxide (NO) detection kit was a product of Nanjing Jiancheng Institute of Biological Engineering (Nanjing, China), and other chemical reagents used in the experiment were of analytical grade.
Following a previous method reported by Zheng et al. (2017), we could determine the ACE inhibitory activity of glutelin-1 hydrolysate, separated fractions, active peptides, and all the other samples with 1.0 mg/mL Captopril as a positive control. The IC50 value (the concentrationof the inhibitory peptide (μM) had to inhibit 50% of the ACE activity) was calculated by linear regression of the curve.
The following formula was used to calculate the ACE inhibition rate (%): ACE inhibition rate(%)=(1-As/Ac)×100 where Ac represents ACE solution’s absorbance without an inhibitor and As represents the mixture containing samples.

[3] = NaCl solutions 2-12%, 37 °C for 30 min

| IC50 of ACE inhibitory activity (enzyme activity assay, ACE from rabbit lung, substrate HHL) [1] [µM] | stability of ACE inhibitory activity with metal ions K+, Ca2+ and Mg2+ ([2]; 100 μg/mL KCl, CaCl2, MgSO4, 37 °C for 2 h) | stability of ACE inhibitory activity under high-concentration salt conditions [2, 3] | stability of ACE inhibitory activity under low-concentration salt conditions [2, 3] | stability of ACE inhibitory activity at low glucose concentration ([2]; glucose solutions 2-12%, 37 °C for 30 min, low concentrations) | IC50 (ACE (from rabbit lung)) [µM] | Molecule | ACE inhibitory activity under pepsin or trypsin digestion (pepsin and trypsin) |
| --- | --- | --- | --- | --- | --- | --- | --- |
| 6.36 | – | – | – | – | – | Phe-Val-Ile-Glu-Pro-Asn-Ile-Thr-Pro-Ala (…) (peptide) | – |
| – | showed stability | less stable | good stability | showed stability | 6.82 | VERGRRITSV [VERGRRITSV, Val-Glu-Arg-Gly-Arg-Arg-Ile-Thr-Ser-Val] | could still maintain high ACE inhibitory activity |
| 6.82 | – | – | – | – | – | VERGRRITSV [Val-Glu-Arg-Gly-Arg-Arg-Ile-Thr-Ser-Val (…)] | – |
